The record followed here is patent publication US10155769B2, “Fused azaheterocyclic compounds and their use as AMPA receptor modulators” (Janssen Pharmaceutica NV, priority 2016, dated 2018).

Each structure is given as a SMILES string.

The assay deals with GluA1o-γ8 (Homo sapiens (Human), UniProt P42261+Q8WXS5). The assay can be described thus: Calcium flux assay (FLIPR), inhibition of TARP γ8 dependent AMPA receptor activity. The format is cell-based. The note with it: HEK293 cells stably expressing GRIA1o-CACNG8 fusion construct; calcium flux following 15 μM glutamate; negative log of IC50 in molar. The text has this: This assay was used to test compounds for their ability to inhibit TARP γ8 dependent AMPA receptor activity. The AMPA receptor is a non-selective cation channel activated by glutamate. Ionotropic glutamate receptors normally desensitize too rapidly to allow detectable calcium influx in a FLIPR assay (Strange et al. (2006). “Functional characterisation of homomeric ionotropic glutamate receptors GluR1-GluR6 in a fluorescence-based high throughput screening assay.” Comb Chem High Throughput Screen 9(2): 147-158). But, this desensitization is incomplete, and a substantial steady-state current remains in the sustained presence of glutamate (Cho et al. (2007). “Two families of TARP isoforms that have distinct effects on the kinetic properties of AMPA receptors and synaptic currents.” Neuron 55(6): 890-904).
GluA1o-γ8, sequence (P42261 other isoform, or with tags, fused parts or gaps): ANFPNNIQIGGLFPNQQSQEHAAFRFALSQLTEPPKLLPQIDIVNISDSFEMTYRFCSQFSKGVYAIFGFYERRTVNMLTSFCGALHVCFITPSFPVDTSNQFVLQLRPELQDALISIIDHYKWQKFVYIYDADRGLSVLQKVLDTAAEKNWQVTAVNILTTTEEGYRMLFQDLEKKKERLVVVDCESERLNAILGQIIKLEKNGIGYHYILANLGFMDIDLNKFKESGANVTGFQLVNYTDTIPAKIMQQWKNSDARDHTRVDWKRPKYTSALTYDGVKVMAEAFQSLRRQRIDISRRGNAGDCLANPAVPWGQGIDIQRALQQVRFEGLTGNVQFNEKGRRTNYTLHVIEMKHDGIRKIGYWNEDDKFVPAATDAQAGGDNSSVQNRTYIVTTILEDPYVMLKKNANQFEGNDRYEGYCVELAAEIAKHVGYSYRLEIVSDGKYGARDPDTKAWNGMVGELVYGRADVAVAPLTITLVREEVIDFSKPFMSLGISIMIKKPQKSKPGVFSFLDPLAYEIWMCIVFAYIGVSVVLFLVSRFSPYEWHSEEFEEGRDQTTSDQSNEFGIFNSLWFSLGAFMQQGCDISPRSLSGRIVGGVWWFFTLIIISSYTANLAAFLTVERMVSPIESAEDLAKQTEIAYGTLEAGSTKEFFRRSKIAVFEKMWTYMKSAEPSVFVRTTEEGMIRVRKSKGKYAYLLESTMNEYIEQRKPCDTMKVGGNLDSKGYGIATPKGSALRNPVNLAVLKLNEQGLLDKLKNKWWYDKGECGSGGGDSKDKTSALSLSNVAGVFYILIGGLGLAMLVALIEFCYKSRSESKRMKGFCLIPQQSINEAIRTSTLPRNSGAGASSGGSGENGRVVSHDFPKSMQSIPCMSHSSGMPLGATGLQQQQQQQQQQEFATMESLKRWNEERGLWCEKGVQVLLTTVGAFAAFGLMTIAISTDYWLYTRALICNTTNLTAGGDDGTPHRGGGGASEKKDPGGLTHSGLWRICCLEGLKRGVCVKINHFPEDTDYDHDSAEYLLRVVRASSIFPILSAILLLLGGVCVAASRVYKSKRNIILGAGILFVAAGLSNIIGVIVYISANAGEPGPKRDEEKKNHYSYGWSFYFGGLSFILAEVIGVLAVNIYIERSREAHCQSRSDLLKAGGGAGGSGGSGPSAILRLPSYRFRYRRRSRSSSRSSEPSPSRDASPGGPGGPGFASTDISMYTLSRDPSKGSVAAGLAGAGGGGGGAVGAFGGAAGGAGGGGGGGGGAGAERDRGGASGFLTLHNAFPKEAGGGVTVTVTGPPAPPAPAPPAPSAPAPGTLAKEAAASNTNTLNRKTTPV
An in vitro assay was used to determine the potency of test compounds as inhibitors of the glutamate response of the channel formed by GluA1o-γ8. To ensure a 1:1 stoichiometry of GluA1o and γ8 subunits in the expressed channel, a fusion of the cDNAs for GRIA1o and CACNG8 was used. Following Shi et al (2009) “The stoichiometry of AMPA receptors and TARPs varies by neuronal cell type.” Neuron 62(5): 633-640), the C-terminus of the cDNA for GRIA1o was fused to the N-terminus of the cDNA for γ8. The linker sequence was QQQQQQQQQQEFAT. Channels expressed with this construct appear to have similar properties to channels formed by co-expression of GRIA1o with an excess of CACNG8 (Shi et al. 2009). A clonal cell line in HEK293 cells stably expressing this construct, with a geneticin selection marker, was generated for use in this assay.
Cell expressing the GRIA1o-CACNG8 fusion construct were grown in a monolayer in 96- or 384-well microtiter plates. They were washed with assay buffer (135 mM NaCl, 4 mM KCl, 3 mM CaCl2, 1 mM MgCl2, 5 mM glucose, 10 mM HEPES, pH 7.4, 300 mOs) using a Biotek EL405 plate washer. The cells were then loaded with a calcium-sensitive dye (Calcium-5 or Calcium-6, Molecular Devices) and the test compounds at a range of concentrations. Calcium flux following the addition of 15 μM glutamate was monitored using a Molecular Devices FLIPR Tetra.
The fluorescence in each well was normalized to the fluorescence of negative and positive control wells. The negative control wells had no added compounds, and the positive control wells had been incubated with 10 μM CP465022 (a non-subtype-selective AMPA receptor antagonist) (Lazzaro et al. (2002). “Functional characterization of CP-465,022, a selective, noncompetitive AMPA receptor antagonist.” Neuropharmacology 42(2): 143-153). The responses to glutamate as functions of the test compound concentrations were fitted to a four-parameter logistic function. The fitted parameter corresponding to the midpoint was taken to be the potency of inhibition of the compound. The data in Table 4 below illustrates the observed potency for the compounds described herein. pIC50 refers to the negative log of the IC50 in molar.
In general terms: Calcium flux is commonly read through the fluorescence of an indicator in the cells.
In the case of `Cc1cc(-c2c(Cl)ccn3nc(C(F)(F)F)nc23)cc2cn[nH]c12` [Example 2, 7-Chloro-8-(7-methyl-1H-indazol-5-yl)-2-(trifluoromethyl)-[1,2,4]triazolo[1,5-a]pyridine], the negative logarithm of the IC50 (pIC50) worked out at 8.5.
With `Cc1cc(-c2c(N3CC(F)C3)ccn3nc(C(F)(F)F)nc23)cc2cn[nH]c12` [Example 8, 7-(3-Fluoroazetidin-1-yl)-8-(7-methyl-1H-indazol-5-yl)-2-(trifluoromethyl)-[1,2,4]triazolo[1,5-a]pyridine], the pIC50 stood at 8.6.
Still for that read-out and setting: then `Cc1ccn2nc(C(C)C)nc2c1-c1cc(C)c2[nH]ncc2c1` [Example 40, 2-Isopropyl-7-methyl-8-(7-methyl-1H-indazol-5-yl)-[1,2,4]triazolo[1,5-a]pyridine], with 6.9; and `Cc1cc(-c2c(C(F)(F)F)ccn3nc(C(C)C)nc23)cc2cn[nH]c12` [Example 38, 2-Isopropyl-8-(7-methyl-1H-indazol-5-yl)-7-(trifluoromethyl)-[1,2,4]triazolo[1,5-a]pyridine], with 8.7; and `O=C1Cc2cc(-c3c(C(F)(F)F)ncn4cc(C5CC5)nc34)cc(F)c2N1` [Example 70, 5-[2-Cyclopropyl-7-(trifluoromethyl)imidazo[1,2-c]pyrimidin-8-yl]-7-fluoro-indolin-2-one], with 5.3.
For `Cc1cc(-c2c(C)ccn3cc(C(C)(C)C)nc23)cc2c1NC(=O)C2` [Example 54, 5-(2-tert-Butyl-7-methyl-imidazo[1,2-a]pyridin-8-yl)-7-methyl-indolin-2-one], the pIC50 worked out at 7.1.
As to `O=c1[nH]c2ccc(-c3c(-c4ccc(F)cc4)ccn4nc(C(F)(F)F)nc34)cc2s1` [Example 5, 6-(7-(4-Fluorophenyl)-2-(trifluoromethyl)-[1,2,4]triazolo[1,5-a]pyridin-8-yl)benzo[d]thiazol-2(3H)-one], the pIC50 is listed as 9.6.
`FC(F)c1cn2cnc(C(F)(F)F)c(-c3cc(Cl)c4[nH]ncc4c3)c2n1` [Example 14, 8-(7-Chloro-1H-indazol-5-yl)-2-(difluoromethyl)-7-(trifluoromethyl)imidazo[1,2-c]pyrimidine]: the IC50 is 0.398 nM.
As for `CCc1nc2c(-c3cc(C)c4c(c3)CC(=O)N4)c(C(F)(F)F)ccn2n1` [Example 36, 5-[2-Ethyl-7-(trifluoromethyl)-[1,2,4]triazolo[1,5-a]pyridin-8-yl]-7-methyl-indolin-2-one], the pIC50 was found to be 8.7.
Still for that read-out and setting: then `Cc1cc(-c2c(C(F)(F)F)ccn3cc(C(F)(F)F)nc23)cc2c1NC(=O)C2` [Example 87, 5-(2,7-Bis(trifluoromethyl)imidazo[1,2-a]pyridin-8-yl)-7-methylindolin-2-one], with 9.4; and `FC(F)(F)c1ncn2c(Cl)c(C3CC3)nc2c1-c1cc(Cl)c2[nH]ncc2c1` [Example 81, 3-Chloro-8-(7-chloro-1H-indazol-5-yl)-2-cyclopropyl-7-(trifluoromethyl)imidazo[1,2-c]pyrimidine], with 9.9; and `Cc1cc(-c2c(-c3ccc(F)cc3)ccn3nc(C4CCC4)nc23)cc2cn[nH]c12` [Example 4, 2-Cyclobutyl-7-(4-fluorophenyl)-8-(7-methyl-1H-indazol-5-yl)-[1,2,4]triazolo[1,5-a]pyridine], with 10.6.
On the same count and under the same terms, next, `Cc1cc(-c2c(C(F)(F)F)ncn3cc(C4CC4)nc23)cc2cn[nH]c12` [Example 68, 2-Cyclopropyl-8-(7-methyl-1H-indazol-5-yl)-7-(trifluoromethyl)imidazo[1,2-c]pyrimidine]: 9.6; `Cc1cc(-c2c(-c3ccc(F)cc3)ccn3nc(C(F)(F)F)nc23)cc2cn[nH]c12` [Example 44, 7-(4-Fluorophenyl)-8-(7-methyl-1H-indazol-5-yl)-2-(trifluoromethyl)-[1,2,4]triazolo[1,5-a]pyridine]: 10.5; `CC(C)c1cn2cnc(C(F)(F)F)c(-c3cc(Cl)c4[nH]ncc4c3)c2n1` [Example 66, 8-(7-Chloro-1H-indazol-5-yl)-2-isopropyl-7-(trifluoromethyl)imidazo[1,2-c]pyrimidine]: 10.0.
In the case of `CCc1ncn2cc(C(F)(F)F)nc2c1-c1cc(Cl)c2[nH]ncc2c1` [Example 73, 8-(7-Chloro-1H-indazol-5-yl)-7-ethyl-2-(trifluoromethyl)imidazo[1,2-c]pyrimidine], the negative logarithm of the IC50 (pIC50) was found to be 9.1.
For `Cc1cc(-c2c(C(F)(F)F)ncn3cc(C(F)F)nc23)cc2cn[nH]c12` [Example 15, 2-(Difluoromethyl)-8-(7-methyl-1H-indazol-5-yl)-7-(trifluoromethyl)imidazo[1,2-c]pyrimidine], the IC50 was 2 nM.
`Cc1cc(-c2c(C(F)(F)F)ccn3cc(C(F)F)nc23)cc2cn[nH]c12` [Example 93, 2-(Difluoromethyl)-8-(7-methyl-1H-indazol-5-yl)-7-(trifluoromethyl)imidazo[1,2-a]pyridine]: the pIC50 was determined as 9.3.
The same measure, in the same setting: next, `O=C1Cc2cc(-c3c(C(F)(F)F)ncn4cc(C5CC5)nc34)cc(Cl)c2N1` [Example 69, 7-Chloro-5-[2-cyclopropyl-7-(trifluoromethyl)imidazo[1,2-c]pyrimidin-8-yl]indolin-2-one]: 9.5; `CCc1ncn2cc(C(F)(F)F)nc2c1-c1cc(C)c2[nH]ncc2c1` [Example 74, 7-Ethyl-8-(7-methyl-1H-indazol-5-yl)-2-(trifluoromethyl)imidazo[1,2-c]pyrimidine]: 8.7; `FC(F)c1cn2cnc(C3CC3)c(-c3cc(Cl)c4[nH]ncc4c3)c2n1` [Example 78, 8-(7-Chloro-1H-indazol-5-yl)-7-cyclopropyl-2-(difluoromethyl)imidazo[1,2-c]pyrimidine]: 8.6.
On to `Cc1cc(-c2c(C(F)(F)F)ccn3nc(C(F)F)nc23)cc2cn[nH]c12` [Example 16, 8-(7-Methyl-1H-indazol-5-yl)-2-(difluoromethyl)-7-(trifluoromethyl)-[1,2,4]triazolo[1,5-a]pyridine], for which the pIC50 was found to be 9.0.
The same measure, in the same setting: then `Cc1ccn2cc(C3CC3)nc2c1-c1cc(C)c2[nH]ncc2c1` [Example 57, 2-Cyclopropyl-7-methyl-8-(7-methyl-1H-indazol-5-yl)imidazo[1,2-a]pyridine], with 7.6.
For `CCc1ncn2cc(C(F)F)nc2c1-c1cc(Cl)c2[nH]ncc2c1` [Example 75, 8-(7-Chloro-1H-indazol-5-yl)-2-(difluoromethyl)-7-ethyl-imidazo[1,2-c]pyrimidine], the pIC50 stood at 8.9.
The same measure, in the same setting: then `FC(F)(F)c1cn2ccc(C(F)(F)F)c(-c3cc(Cl)c4[nH]ncc4c3)c2n1` [Example 88, 5-(2,7-Bis(trifluoromethyl)imidazo[1,2-a]pyridin-8-yl)-7-chloro-1H-indazole], with 10.3.
Same read-out and setting: then `Cc1nc2c(-c3cc(C)c4[nH]ncc4c3)c(C(F)(F)F)ccn2n1` [Example 33, 2-Methyl-8-(7-methyl-1H-indazol-5-yl)-7-(trifluoromethyl)-[1,2,4]triazolo[1,5-a]pyridine], with 7.9; and `Cc1ccn2cc(-c3ccccc3)nc2c1-c1cc(C)c2[nH]ncc2c1` [Example 56, 7-Methyl-8-(7-methyl-1H-indazol-5-yl)-2-phenyl-imidazo[1,2-a]pyridine], with 7.9; and `O=C1Cc2cc(-c3c(C(F)(F)F)ccn4cc(C(F)(F)F)nc34)cc(Cl)c2N1` [Example 86, 5-(2,7-Bis(trifluoromethyl)imidazo[1,2-a]pyridin-8-yl)-7-chloroindolin-2-one], with 9.8.
As for `O=c1[nH]c2ccc(-c3c(C(F)(F)F)ccn4nc(C(F)(F)F)nc34)cc2s1` [Example 3, 6-(2,7-Bis(trifluoromethyl)-[1,2,4]triazolo[1,5-a]pyridin-8-yl)benzo[d]thiazol-2(3H)-one], the pIC50 is on record as 8.1.
Regarding `Fc1ccc(-c2ccn3cc(C(F)(F)F)nc3c2-c2ccc3[nH]ncc3c2)cc1` [Example 12, 5-(7-(4-Fluorophenyl)-2-(trifluoromethyl)imidazo[1,2-a]pyridin-8-yl)-1H-indazole], the 50% inhibitory concentration (IC50) is 3.16 nM.

For orientation: pIC50 means −log10 of the IC50, conventionally taken in molar units. The IC50 is the concentration that gives 50% inhibition.
